The target in this experiment is T1, CHK1 (Homo sapiens, UniProt O14757).
T1 construct: His; purchased Invitrogen
T1 sequence (O14757 1-476): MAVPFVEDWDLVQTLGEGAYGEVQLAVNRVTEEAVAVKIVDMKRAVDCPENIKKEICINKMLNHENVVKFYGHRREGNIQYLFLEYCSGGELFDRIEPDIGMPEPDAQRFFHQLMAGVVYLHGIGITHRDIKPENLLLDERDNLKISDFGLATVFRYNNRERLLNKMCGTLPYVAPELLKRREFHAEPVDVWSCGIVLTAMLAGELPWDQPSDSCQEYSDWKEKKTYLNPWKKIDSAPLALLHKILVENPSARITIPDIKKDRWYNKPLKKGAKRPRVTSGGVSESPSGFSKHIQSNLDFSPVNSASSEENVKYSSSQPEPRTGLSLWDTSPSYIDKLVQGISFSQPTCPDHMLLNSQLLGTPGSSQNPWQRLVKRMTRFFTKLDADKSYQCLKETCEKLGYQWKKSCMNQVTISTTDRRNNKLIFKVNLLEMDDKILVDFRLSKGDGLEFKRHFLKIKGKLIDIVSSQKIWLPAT
As to the kind of experiment: CHK1 Enzyme Assay (phosphorylation of Chktide peptide, 33P-ATP filter assay). The experiment is classed as biochemical. To be noted: 12.5 nM His-CHK1, 0.01 mM ATP, 40 minutes at 30° C.; read-out: CHK1 Enzyme Activity (IC50 range). Here is the method:
Assays for the CHK1 kinase activity were carried out by monitoring the phosphorylation of a synthetic peptide Chktide with the amino acid sequence, […]. The assay mixture containing the inhibitor and CHK1 enzyme was mixed together in a microtiter plate in a final volume of 50 μl and incubated for 40 minutes at 30° C.
The assay mixture contained 0.01 mM unlabeled ATP, 0.5 μCi ^33P-γ-ATP, 14.8 μM Chktide, 0.1 mg/mL BSA, 50 mM Hepes-NaOH pH 7.5 and 12.5 nM His-CHK1 (Invitrogen) enzyme. The reaction was stopped by adding 50 μL of 50 mM phosphoric acid. 90 μL of the mixture was transferred to a pre-wetted 96-well multi-screen MAPHNOB filtration plate (Millipore) and filtered on a vacuum manifold. The filter plate was washed with 3 successive additions of 200 μl 50 mM phosphoric acid and then with 100 μL methanol. The filtration plate was dried for 10 min at 65° C., scintillant added and phosphorylated peptide quantified in a scintillation counter (Trilux, PerkinElmer).
Consider `CN(Cc1ccc2[nH]c(-c3cc(NC(=O)c4cnn(Cc5ccc(F)cc5)c4)c[nH]c3=O)cc2c1)C1CCCCC1` [Example 84], for which the IC50 is < 0.1 µM.
For `CC(c1ccc(F)cc1)n1cc(C(=O)Nc2c[nH]c(=O)c(-c3cc4cc(CN5CCN(C)CC5)ccc4[nH]3)c2)cn1` (stereo not shown) [Example 89, 1-[1-(4-Fluoro-phenyl)-ethyl]-1H-pyrazole-4-carboxylic acid {5-[5-(4-methylpiperazin-1-ylmethyl)-1H-indol-2-yl]-6-oxo-1,6-dihydro-pyridin-3-yl}-amide], the IC50 is < 0.1 µM.
In the case of `COc1ccc(Cn2cc(NC(=O)c3c[nH]c(=O)c(-c4cc5ccccc5[nH]4)c3)cn2)cc1` [Example 2, 5-(1H-Indol-2-yl)-6-oxo-1,6-dihydro-pyridine-3-carboxylic acid [1-(4-methoxy-benzyl)-1H-pyrazol-4-yl]-amide], the IC50 was 0.1 to 0.5 µM.
In the case of `Cc1ccc(Cn2cc(C(=O)Nc3c[nH]c(=O)c(-c4cc5cc(CN6CCOCC6)ccc5[nH]4)c3)cn2)cc1` [Example 40, 1-(4-Methyl-benzyl)-1H-pyrazole-4-carboxylic acid [5-(5-morpholin-4-ylmethyl-1H-indol-2-yl)-6-oxo-1,6-dihydro-pyridin-3-yl]-amide] it was < 0.1 µM; in that of `CCN(CC)CCOc1ccc2[nH]c(-c3cc(NC(=O)c4cnn(Cc5ccc(C)cc5)c4)c[nH]c3=O)cc2c1` [Example 125, 1-(4-Methyl-benzyl)-1H-pyrazole-4-carboxylic acid {5-[5-(2-diethylamino-ethoxy)-1H-indol-2-yl]-6-oxo-1,6-dihydro-pyridin-3-yl}-amide], < 0.1 µM.
In the case of `C[C@@H]1CN(Cc2cccc3[nH]c(-c4cc(NC(=O)c5cnn(Cc6ccccc6)c5)c[nH]c4=O)cc23)C[C@H](C)O1` [Example 109, 1-Benzyl-1H-pyrazole-4-carboxylic acid {5-[4-(cis-2,6-dimethyl-morpholin-4-ylmethyl)-1H-indol-2-yl]-6-oxo-1,6-dihydro-pyridin-3-yl}-amide] it was < 0.1 µM.
As for `O=C(Nc1c[nH]c(=O)c(-c2cc3cc(CNCCO)ccc3[nH]2)c1)c1cnn(Cc2ccccc2)c1` [Example 61], the IC50 is < 0.1 µM.
Turning to `O=C(Nc1cnn(Cc2ccc(F)c(F)c2)c1)c1c[nH]c(=O)c(-c2cc3cc(CN4CCCC4)ccc3[nH]2)c1` [Example 98, 6-oxo-5-(5-pyrrolidin-1-ylmethyl-1H-indol-2-yl)-1,6-dihydro-pyridine-3-carboxylic acid [1-(3,4-difluoro-benzyl)-1H-pyrazol-4-yl]-amide], the IC50 is < 0.1 µM.
For the compound `CCc1cccc(Cn2cc(C(=O)Nc3c[nH]c(=O)c(-c4cc5cc(OCCCN(CC)CC)ccc5[nH]4)c3)cn2)c1` [Example 136, 1-(3-Ethyl-benzyl)-1H-pyrazole-4-carboxylic acid {5-[5-(3-diethylamino-propoxy)-1H-indol-2-yl]-6-oxo-1,6-dihydro-pyridin-3-yl}-amide], the IC50 was < 0.1 µM.
In the case of `CC1CCN(Cc2ccc3[nH]c(-c4cc(NC(=O)c5cnn(C(C)c6ccccc6)c5)c[nH]c4=O)cc3c2)CC1` (stereo not shown) [Example 92, 1-(1-Phenyl-ethyl)-1H-pyrazole-4-carboxylic acid {5-[5-(4-methyl-piperidin-1-ylmethyl)-1H-indol-2-yl]-6-oxo-1,6-dihydro-pyridin-3-yl}-amide] it was < 0.1 µM.
In the case of `C[C@@H](c1ccccc1)n1cc(C(=O)Nc2c[nH]c(=O)c(-c3cc4ccccc4[nH]3)c2)cn1` [Example 160, 1-((S)-1-Phenyl-ethyl)-1H-pyrazole-4-carboxylic acid [5-(1H-indol-2-yl)-6-oxo-1,6-dihydro-pyridin-3-yl]-amide] it was 0.1 to 0.5 µM; in that of `CCN(CC)Cc1ccc2[nH]c(-c3cc(NC(=O)c4cnn(Cc5ccc(C)cc5)c4)c[nH]c3=O)cc2c1` [Example 75, 1-(4-Methyl-benzyl)-1H-pyrazole-4-carboxylic acid [5-(5-diethylaminomethyl-1H-indol-2-yl)-6-oxo-1,6-dihydro-pyridin-3-yl]-amide], < 0.1 µM; in that of `CCc1cccc(Cn2cc(C(=O)Nc3c[nH]c(=O)c(-c4cc5cc(OCCN6CC(C)OC(C)C6)ccc5[nH]4)c3)cn2)c1` (stereo not shown) [Example 138, 1-(3-Ethyl-benzyl)-1H-pyrazole-4-carboxylic acid (5-{5-[2-(2,6-dimethyl-morpholin-4-yl)-ethoxy]1H-indol-2-yl}-6-oxo-1,6-dihydro-pyridin-3-yl)-amide], < 0.1 µM.
For `Cc1ccc(Cn2cc(C(=O)Nc3c[nH]c(=O)c(-c4cc5cc(OCCN(C)C)ccc5[nH]4)c3)cn2)cc1` [Example 132, 1-(4-Methyl-benzyl)-1H-pyrazole-4-carboxylic acid {5-[5-(2-dimethylamino-ethoxy)-1H-indol-2-yl]-6-oxo-1,6-dihydro-pyridin-3-yl}-amide] the value was < 0.1 µM; for `Cc1ccc(Cn2cc(C(=O)Nc3c[nH]c(=O)c(-c4cc5cc(CN(C)CCO)ccc5[nH]4)c3)cn2)cc1` [Example 43, 1-(4-Methyl-benzyl)-1H-pyrazole-4-carboxylic acid [5-(5-{[(2-hydroxy-ethyl)-methyl-amino]-methyl}-1H-indol-2-yl)-6-oxo-1,6-dihydro-pyridin-3-yl]-amide], < 0.1 µM.
Turning to `O=C(Nc1cnn(Cc2ccccc2)c1)c1c[nH]c(=O)c(-c2cc3cc(CN4CCNCC4)ccc3[nH]2)c1` [Example 16, 6-oxo-5-(5-piperazin-1-ylmethyl-1H-indol-2-yl)-1,6-dihydro-pyridine-3-carboxylic acid (1-benzyl-1H-pyrazol-4-yl)-amide], the IC50 was < 0.1 µM.
In the case of `CCc1cccc(Cn2cc(C(=O)Nc3c[nH]c(=O)c(-c4cc5cc(OCCCN(C)C)ccc5[nH]4)c3)cn2)c1` [Example 129, 1-(3-Ethyl-benzyl)-1H-pyrazole-4-carboxylic acid {5-[5-(3-dimethylamino-propoxy)-1H-indol-2-yl]-6-oxo-1,6-dihydro-pyridin-3-yl}-amide] it was < 0.1 µM; in that of `Cc1ccc(Cn2cc(C(=O)Nc3c[nH]c(=O)c(-c4cc5cc(CN6C[C@@H](C)O[C@@H](C)C6)ccc5[nH]4)c3)cn2)cc1` [Example 74, 1-(4-Methyl-benzyl)-1H-pyrazole-4-carboxylic acid {5-[5-(cis-2,6-dimethyl-morpholin-4-ylmethyl)-1H-indol-2-yl]-6-oxo-1,6-dihydro-pyridin-3-yl}-amide], < 0.1 µM.
In the case of `O=C(Nc1c[nH]c(=O)c(-c2cc3cc(OCCN4CCCC4)ccc3[nH]2)c1)c1cnn(Cc2ccccc2)c1` [Example 144, 1-Benzyl-1H-pyrazole-4carboxylic acid {6-oxo-5-[5-(2-pyrrolidin-1-yl-ethoxy)-1H-indol-2-yl]-1,6-dihydro-pyridin-3-yl}-amide] it was < 0.1 µM; in that of `CC(c1ccccc1)n1cc(C(=O)Nc2c[nH]c(=O)c(-c3cc4cc(CN5C[C@@H](C)O[C@@H](C)C5)ccc4[nH]3)c2)cn1` (stereo partly drawn) [Example 91, 1-(1-Phenyl-ethyl)-1H-pyrazole-4-carboxylic acid {5-[5-(cis-2,6-dimethyl-morpholin-4-ylmethyl)-1H-indol-2-yl]-6-oxo-1,6-dihydro-pyridin-3-yl}-amide], < 0.1 µM.
For `O=C(Nc1c[nH]c(=O)c(-c2cc3cc(CN4CCC(F)CC4)ccc3[nH]2)c1)c1cnn(Cc2ccc(Cl)cc2)c1` [Example 47, 1-(4-Chloro-benzyl)-1H-pyrazole-4-carboxylic acid {5-[5-(4-fluoro-piperidin-1-ylmethyl)-1H-indol-2-yl]-6-oxo-1,6-dihydro-pyridin-3-yl}-amide] the value was < 0.1 µM; for `O=C(Nc1c[nH]c(=O)c(-c2cc3cc(OCCN4CCCCC4)ccc3[nH]2)c1)c1cnn(Cc2ccccc2)c1` [Example 149, 1-Benzyl-1H-pyrazole-4-carboxylic acid {6-oxo-5-[5-(2-piperidin-1-yl-ethoxy)-1H-indol-2-yl]-1,6-dihydro-pyridin-3-yl}-amide], < 0.1 µM.
As for `O=C(Nc1c[nH]c(=O)c(-c2cc3ccccc3[nH]2)c1)c1cnn(Cc2ccc(F)nc2)c1` [Example 111, 1-(6-Fluoro-pyridin-3-ylmethyl)-1H-pyrazole-4-carboxylic acid [5-(1H-indol-2-yl)-6-oxo-1,6-dihydro-pyridin-3-yl]-amide], the IC50 is < 0.1 µM.
For `CC1CCN(Cc2ccc3[nH]c(-c4cc(NC(=O)c5cnn([C@H](C)c6ccccc6)c5)c[nH]c4=O)cc3c2)CC1` [Example 167, 1-((R)-1-Phenyl-ethyl)-1H-pyrazole-4-carboxylic acid {5-[5-(4-methyl-piperidin-1-ylmethyl)-1H-indol-2-yl]-6-oxo-1,6-dihydro-pyridin-3-yl}-amide] the value was < 0.1 µM.
Regarding `Cc1ccc(Cn2cc(C(=O)Nc3c[nH]c(=O)c(-c4cc5cc(OCCCN6CCN(C)CC6)ccc5[nH]4)c3)cn2)cc1` [Example 124], the IC50 is < 0.1 µM.

The term IC50 denotes the concentration at which inhibition is half-maximal.

Values taken from patent US9604975B2, “Indolyl-pyridone derivatives having checkpoint kinase 1 inhibitory activity” (Vernalis (R&D) Ltd., priority 2009, dated 2017).
